Read-outs that look alike come from different tables or passages of the source.
Experiments:
[1] = tested on: P. aeruginosa PA259-96196; assay: microbe, parasite or virus in culture; assay type: cell-based, Pseudomonas aeruginosa; details: PA259-96196, 18 h
Summary of the method: (§1)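 MIC was determined by broth microdilution following CLSI guidelines. Serially varied compound concentrations were incubated with bacterial inoculum at 5 × 10^5 CFU/mL (final) for 18 h at 37 °C. Growth was scored as turbidity by absorbance at 590 nm.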

[2] = tested on: P. aeruginosa PA262-101856; assay: microbe, parasite or virus in culture; assay type: cell-based, Pseudomonas aeruginosa; details: PA262-101856, 18 h
Summary of the method: as §1

K. pneumoniae 113250 = assay: microbe, parasite or virus in culture; assay type: cell-based, Klebsiella pneumoniae; details: 113250, 18 h
Summary of the method: as §1

P. aeruginosa PAO1 = assay type: cell-based, Pseudomonas aeruginosa; details: PAO1, 18 h
Protocol: (§2) The in vitro antibacterial activity of the UTBLPs was assessed against wild-type and clinically isolated bacterial strains. To obtain the MIC of the compounds, the microbroth dilution susceptibility assay was performed according to the Clinical and Laboratory Standards Institute (CLSI, Wayne, PA, USA) guidelines and as previously described. Briefly, the compounds at varying concentrations were incubated with bacterial inoculum (5 × 10^5 CFU/mL final concentration) at 37 °C for 18 h. Growth in the form of turbidity was confirmed using an EMax Plus microplate reader (Molecular Devices, San Jose, CA, USA) at 590 nm.

E. faecium ATCC 27270 = assay type: cell-based, Enterococcus faecium
Protocol: (§3) The synergy of the UTBLPs with various antibiotics was assessed using checkerboard assay as previously described. Briefly, the combination of antibiotic and OMP at varying concentrations were incubated with bacterial inoculum (5 × 10^5 CFU/mL final concentration) at 37 °C for 18 h. Growth in the form of turbidity was confirmed using an EMax Plus microplate reader (Molecular Devices, Union City, CA, USA) at 590 nm. Fractional inhibitory concentration index (FICI) was used to evaluate the interaction between the antibiotic and the OMP. FICI is the sum of the FIC of the antibiotic and the FIC of the OMP. The FIC value is calculated by dividing the MIC of the agents in combination by the MIC of the agent alone. FICI ≤ 0.5 is synergistic, 0.5 < x ≤ 4 is additive, and >4 is antagonistic.

MSSE 81388 [3] = assay type: cell-based, Staphylococcus epidermidis; details: 18 h
Protocol: as §2

MRSE 61589 [4] = assay type: cell-based, Staphylococcus epidermidis; details: 61589, 18 h
Protocol: as §2

E. coli 94474 = assay: microbe, parasite or virus in culture; assay type: cell-based, Escherichia coli; details: 94474, 18 h
Summary of the method: as §1

E. coli 94393 [5] = assay: microbe, parasite or virus in culture; assay type: cell-based, Escherichia coli; details: 94393, 18 h
Summary of the method: as §1

E. coli ATCC 25922 [6] = assay type: cell-based, Escherichia coli; details: for MICUTBLP: UTBLP alone
Summary of the method: (§4)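 Checkerboard synergy assay: antibiotic and OMP combined at varying concentrations with 5 × 10^5 CFU/mL inoculum (final), 37 °C, 18 h; growth read as turbidity at 590 nm. FICI = sum of FICs (MIC in combination / MIC alone); ≤0.5 synergistic, 0.5–4 additive, >4 antagonistic.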

E. coli 94393 [7] = assay type: cell-based, Escherichia coli; details: for MICUTBLP: UTBLP alone
Summary of the method: as §4

E. faecalis ATCC 29212 = assay type: cell-based, Enterococcus faecalis
Protocol: as §3

S. aureus ATCC 29213 = assay type: cell-based, Staphylococcus aureus; details: ATCC 29213, 18 h
Protocol: as §2

MRSA ATCC 33592 = assay type: cell-based, Staphylococcus aureus; details: ATCC 33592, 18 h
Protocol: as §2

E. coli ATCC 25922 [8] = assay type: cell-based, Escherichia coli; details: ATCC 25922, 18 h
Protocol: as §2

MSSE 81388 [9] = assay type: cell-based, Staphylococcus epidermidis
Protocol: as §3

MRSE 61589 [10] = assay type: cell-based, Staphylococcus epidermidis
Protocol: as §3

E. cloacae 118564 = assay: microbe, parasite or virus in culture; assay type: cell-based, Enterobacter cloacae; details: 118564, 18 h
Summary of the method: as §1

[11] = UTBLP alone, plate with chloramphenicol
[12] = UTBLP in combination with chloramphenicol
[13] = chloramphenicol in combination with the UTBLP
[14] = UTBLP in combination with novobiocin
[15] = UTBLP in combination with rifampicin
[16] = novobiocin in combination with the UTBLP
[17] = rifampicin in combination with the UTBLP

In the case of `CCCCCCCC(=O)N[C@@H](CCCCN(C)C)C(=O)NCCCN(CCCNC(=O)[C@H](CCCCN(C)C)NC(=O)CCCCCCC)CC(=O)N[C@@H](CCCCN(C)C)C(N)=O` [UTBLP 3], the MIC [1] is reported as greater than 128 µg/mL, the MIC [2] is reported as greater than 128 µg/mL and the MIC (K. pneumoniae 113250) is reported as greater than 128 µg/mL. For the same compound, the MIC (P. aeruginosa PAO1) was greater than 128 µg/mL, the Interpretation (E. faecium ATCC 27270; UTBLP + chloramphenicol) was “Additive (0.5 < x ≤ 4 is additive)” and the MICUTBLP (E. faecium ATCC 27270; [11]) was greater than 128 µg/mL. The “MICUTBLP [MICcombo]” value (E. faecium ATCC 27270; [12]) was 0.25 µg/mL, the “MICchloramphenicol [MICcombo]” value (E. faecium ATCC 27270; [13]) was 8 µg/mL and the MIC (MSSE 81388 [3]) was greater than 128 µg/mL. For the same compound, the MIC (MRSE 61589 [4]) was greater than 128 µg/mL, the MIC (E. coli 94474) was greater than 128 µg/mL and the MIC (E. coli 94393 [5]) was greater than 128 µg/mL. For the same compound, the Interpretation (E. coli ATCC 25922 [6]; UTBLP + chloramphenicol) was “Additive (0.5 < x ≤ 4 is additive)”, the Interpretation (E. coli ATCC 25922 [6]; UTBLP + niclosamide) was “Synergy (FICI ≤ 0.5 is synergistic)” and the Interpretation (E. coli ATCC 25922 [6]; UTBLP + novobiocin) was “Synergy (FICI ≤ 0.5 is synergistic)”. For the same compound, the Interpretation (E. coli ATCC 25922 [6]; UTBLP + rifampicin) was “Synergy (FICI ≤ 0.5 is synergistic)”, the MICUTBLP (E. coli ATCC 25922 [6]; plate with chloramphenicol) was greater than 128 µg/mL and the MICUTBLP (E. coli ATCC 25922 [6]; plate with niclosamide) was greater than 128 µg/mL. The MICUTBLP (E. coli ATCC 25922 [6]; plate with novobiocin) was greater than 128 µg/mL, the MICUTBLP (E. coli ATCC 25922 [6]; plate with rifampicin) was greater than 128 µg/mL and the “MICUTBLP [MICcombo]” value (E. coli ATCC 25922 [6]; [12]) was 0.5 µg/mL. For the same compound, the “MICUTBLP [MICcombo]” value (E. coli ATCC 25922 [6]; UTBLP in combination with niclosamide) was 16 µg/mL, the “MICUTBLP [MICcombo]” value (E. coli ATCC 25922 [6]; [14]) was 16 µg/mL and the “MICUTBLP [MICcombo]” value (E. coli ATCC 25922 [6]; [15]) was 16 µg/mL. For the same compound, the “MICantibiotic [MICcombo]” value (E. coli ATCC 25922 [6]; [13]) was 2 µg/mL, the “MICantibiotic [MICcombo]” value (E. coli ATCC 25922 [6]; niclosamide in combination with the UTBLP) was 8 µg/mL and the “MICantibiotic [MICcombo]” value (E. coli ATCC 25922 [6]; [16]) was 4 µg/mL. The “MICantibiotic [MICcombo]” value (E. coli ATCC 25922 [6]; [17]) was 1 µg/mL, the Interpretation (E. coli 94393 [7]; UTBLP + novobiocin) was “Synergy (FICI ≤ 0.5 is synergistic)” and the Interpretation (E. coli 94393 [7]; UTBLP + rifampicin) was “Synergy (FICI ≤ 0.5 is synergistic)”. The MICUTBLP (E. coli 94393 [7]; plate with novobiocin) was greater than 128 µg/mL, the MICUTBLP (E. coli 94393 [7]; plate with rifampicin) was greater than 128 µg/mL and the “MICUTBLP [MICcombo]” value (E. coli 94393 [7]; [14]) was 16 µg/mL. The “MICUTBLP [MICcombo]” value (E. coli 94393 [7]; [15]) was 16 µg/mL, the “MICantibiotic [MICcombo]” value (E. coli 94393 [7]; [16]) was 8 µg/mL and the “MICantibiotic [MICcombo]” value (E. coli 94393 [7]; [17]) was 1 µg/mL. For the same compound, the Interpretation (E. faecalis ATCC 29212; UTBLP + chloramphenicol) was “Additive (0.5 < x ≤ 4 is additive)”, the MICUTBLP (E. faecalis ATCC 29212; [11]) was greater than 128 µg/mL and the “MICUTBLP [MICcombo]” value (E. faecalis ATCC 29212; [12]) was 0.25 µg/mL. For the same compound, the “MICchloramphenicol [MICcombo]” value (E. faecalis ATCC 29212; [13]) was 8 µg/mL, the MIC (S. aureus ATCC 29213) was greater than 128 µg/mL and the MIC (MRSA ATCC 33592) was greater than 128 µg/mL. For the same compound, the MIC (E. coli ATCC 25922 [8]) was greater than 128 µg/mL, the Interpretation (MSSE 81388 [9]; UTBLP + chloramphenicol) was “Additive (0.5 < x ≤ 4 is additive)” and the MICUTBLP (MSSE 81388 [9]; [11]) was greater than 128 µg/mL. For the same compound, the “MICUTBLP [MICcombo]” value (MSSE 81388 [9]; [12]) was 0.25 µg/mL, the “MICchloramphenicol [MICcombo]” value (MSSE 81388 [9]; [13]) was 8 µg/mL and the Interpretation (MRSE 61589 [10]; UTBLP + chloramphenicol) was “Additive (0.5 < x ≤ 4 is additive)”. For the same compound, the MICUTBLP (MRSE 61589 [10]; [11]) was greater than 128 µg/mL, the “MICUTBLP [MICcombo]” value (MRSE 61589 [10]; [12]) was 0.25 µg/mL and the “MICchloramphenicol [MICcombo]” value (MRSE 61589 [10]; [13]) was 16 µg/mL. The MIC (E. cloacae 118564) was greater than 128 µg/mL.

— paper PMC8963254, “Effects of Lysine N-ζ-Methylation in Ultrashort Tetrabasic Lipopeptides (UTBLPs) on the Potentiation of Rifampicin, Novobiocin, and Niclosamide in Gram-Negative Bacteria” (Antibiotics, 2022)
